Test results as given in patent publication US20260167621A1, “Three Cluster Galactose Type Compound, Conjugate, Making Method and Use Thereof” (GUANGZHOU RIBOBIO CO., LTD., priority 2023, published 2026).

Assays:
PCSK9 mRNA = experiment: Knock down effect on the expression of PCSK9 mRNA in Hep3B cell; type: cell-based, human; conditions: Lipofectamine 3000 transfection, qPCR, actin as reference gene
Protocol: Referring to Chinese Patent Application No. CN109957567B, the synthesized siRNA sequences were shown below:
The compound G2, G4, G5 obtained from the examples 2, 4, 5, bound to the above mentioned siRNA respectively to form conjugates which were shown in Table 4.
Hep3B cell (ATCC, HB-8064) was cultured, the cell density was about 30% to 50% before transfection and relatively uniformly.
Each conjugate samples of Table 4 were prepared to 20 μM storage solution, and were set as experimental groups. Except the experimental groups, normal cell control group (Blank), transfection reagent control group (Mock), negative control group 1 (NC001, Ribobio, siM21 1215011852) and negative control group 2 (NC002, Ribobio, siM21 1215011852) were also set. Referring to the specification of Lipofectamine™ 3000 transfection reagent (Thermo Fisher, L300001), cells were transfected. Both the experimental groups and the control groups had 3 replicates.
The total RNA extraction was performed with reference to the specification of MagZol Reagent (Magen, R4801).
The reverse transcription was performed with reference to the specification of riboSCRIPT™ Reverse Transcription Kit (Ribobio, C11027-2).
Human house keeping gene actin was used for reference gene, forward primer sequence of actin gene: 5′-[…]-3′ (SEQ ID NO: 5), reverse primer sequence: 5′-[…]-3′ (SEQ ID NO: 6); forward primer sequence of human PCSK9 gene: 5′-[…]-3′ (SEQ ID NO: 7), reverse primer sequence: 5′-[…]-3′ (SEQ ID NO: 8). 2×SYBR Green Mix (Ribobio, C10712F −1 m l) and fluorescence quantitative PCR instrument (BioRad, CFX96) were used to perform real time fluorescence quantitative PCR reaction. After PCR reaction, the Ct deviation of 9 replicates of a sample (3 transfection replicates×3 qPCR duplicates) should be ±0.5. Then CFX 2.1 software was used for quantitative analysis.

[1] = target: T1, Hepatocyte ASGPR receptor (Homo sapiens, UniProt P07306); experiment: Binding affinity test with hepatocyte ASGPR receptor (Cy5 flow cytometry, binding saturation curve); conditions: for Bmax: average Cy5 fluorescence intensity of live cells minus blank, one site binding (hyperbola) fit; for Bmax / Kd: 0.9-100 nM, 2 hours on ice; for Kd: one site binding (hyperbola) fit of Cy5 fluorescence, read-out: Kd (dissociation equilibrium constant); for binding affinity with ASGPR receptor: statement in words from Table 3
T1 construct: endogenous in cells
T1 sequence (P07306 1-291): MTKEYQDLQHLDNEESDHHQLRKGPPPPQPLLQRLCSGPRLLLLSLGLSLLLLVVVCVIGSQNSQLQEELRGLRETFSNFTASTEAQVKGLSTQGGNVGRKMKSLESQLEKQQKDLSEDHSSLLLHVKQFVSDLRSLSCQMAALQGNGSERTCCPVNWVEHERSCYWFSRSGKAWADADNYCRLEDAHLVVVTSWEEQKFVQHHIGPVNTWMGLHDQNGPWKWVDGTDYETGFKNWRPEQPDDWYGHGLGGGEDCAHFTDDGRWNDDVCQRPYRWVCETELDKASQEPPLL
T1 sequence (P07307 1-311 partner): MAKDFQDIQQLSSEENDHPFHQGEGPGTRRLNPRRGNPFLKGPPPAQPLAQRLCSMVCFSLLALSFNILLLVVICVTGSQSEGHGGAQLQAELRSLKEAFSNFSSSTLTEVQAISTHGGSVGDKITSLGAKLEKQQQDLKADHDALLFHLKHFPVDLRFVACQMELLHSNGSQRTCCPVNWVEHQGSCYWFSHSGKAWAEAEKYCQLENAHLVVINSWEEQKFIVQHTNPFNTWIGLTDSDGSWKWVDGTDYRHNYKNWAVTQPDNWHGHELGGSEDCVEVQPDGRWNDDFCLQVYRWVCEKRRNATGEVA
Protocol: Embodiment 1: Binding Affinity Test with Hepatocyte ASGPR Receptor
The compound G1, G4, G5 obtained from the examples 1, 4, 5, bound to the above mentioned siRNA respectively to form conjugates which were shown in Table 1.
G1-12, G4-12, G5-12 (1 uM) were diluted respectively in a gradient according to the following Table 2.
The cell concentration was diluted by DMEM culture medium with 2% FBS to 4*10^5 cells/mL.
200 μL cells of each sample and 200 μL siRNA were mixed uniformly, 200 μL cells of the blank control group and 200 μL culture medium were mixed uniformly, and were added in 3 wells of 96-well plate with U-shaped bottom, 100 μL each well. Samples of each concentration of all siRNA were placed in the ice box after sampling, and were placed in decolorization shaker and incubated in dark for 2 hours.
50 g of 96-well plate with U-shaped bottom was centrifuged for 2 minutes at 4° C. 80 μL supernatant was aspirated and discarded by pipette, 10 μg/mL propidium iodide was prepared by using of PBS with 2% FBS, 100 μL PI reagent was added in each well and was stained for 15 minutes. After staining, 50 g of 96-well plate with U-shaped bottom was centrifuged for 2 minutes at 4° C. After washed by PBS with 2% FBS for twice, 100 μL PBS with 2% FBS was added for resuspension, flow cytometer was used to test and count the average Cy5 fluorescence intensity of live cell population.

Row | Substance | PCSK9 mRNA relative expression value, the average relative expression (PCSK9 mRNA) | Bmax [1] | Kd [1] [nM] | binding affinity with ASGPR receptor [1]
1 | G2-34: G2 bound to 5' end of SEQ ID NO: 3, paired with 5'-phos* SEQ ID NO: 4 (PCSK9 siRNA); structure Z2 (sense GGUCUGGAAUGCAAAGUCA; antisense UGACUUUGCAUUCCAGACC; G2 ligand 5'; 5'-phosphate; modified_base join(1,4,5,6,10,11,12,13,14,15,16) OTHER; 2'-O-methyl modification; modified_base join(2,3,17,18,19) OTHER; thiophosphorylated skeleton modification and 2'-O-methyl modification; modified_base join(7,8,9) OTHER; 2'-fluoro modification; modified_base join(1,5,7,9,11,13,15) OTHER; modified_base join(3,17,18,19) OTHER; modified_base 2 OTHER; thiophosphorylated skeleton modification and 2'-fluoro modification; modified_base join(4,6,8,10,12,14,16) OTHER) [Compound G2-34] | 0.34 | – | – | –
2 | G4-34: G4 bound to 5' end of SEQ ID NO: 3 via C6 amino modification, paired with 5'-phos* SEQ ID NO: 4; structure Z4 (sense GGUCUGGAAUGCAAAGUCA; antisense UGACUUUGCAUUCCAGACC; G4 ligand via C6 amino; 5'-phosphate; modified_base join(1,4,5,6,10,11,12,13,14,15,16) OTHER; 2'-O-methyl modification; modified_base join(2,3,17,18,19) OTHER; thiophosphorylated skeleton modification and 2'-O-methyl modification; modified_base join(7,8,9) OTHER; 2'-fluoro modification; modified_base join(1,5,7,9,11,13,15) OTHER; modified_base join(3,17,18,19) OTHER; modified_base 2 OTHER; thiophosphorylated skeleton modification and 2'-fluoro modification; modified_base join(4,6,8,10,12,14,16) OTHER) [Compound G4-34] | 0.41 | – | – | –
3 | G4-12: G4 bound to 5' end of SEQ ID NO: 1 via C6 amino modification, paired with 5'-Cy5 SEQ ID NO: 2; structure Z4 (sense GUAUGUUGCCCGUUUGUCC; antisense GGACAAACGGGCAACAUACCU; G4 ligand via C6 amino; Cy5 label; modified_base join(1,5,8,12,16) OTHER; deoxyribonucleotide modification; modified_base 3 OTHER; thiophosphorylated skeleton modification and deoxyribonucleotide modification; modified_base join(4,6,7,9,10,11,13,14,15,17) OTHER; 2'-fluoro modification; modified_base join(2,18,19) OTHER; thiophosphorylated skeleton modification and 2'-fluoro modification; modified_base join(1,5,7,9,11,13,15,17) OTHER; 2'-O-methyl modification; modified_base join(3,19,20,21) OTHER; thiophosphorylated skeleton modification and 2'-O-methyl modification; modified_base join(2,4) …) [Compound G4-12] | – | 239297 | 6.37 | reach a higher level
4 | G5-34: G5 bound to 5' end of SEQ ID NO: 3 via C6 amino modification, paired with 5'-phos* SEQ ID NO: 4; structure Z5 (sense GGUCUGGAAUGCAAAGUCA; antisense UGACUUUGCAUUCCAGACC; G5 ligand via C6 amino; 5'-phosphate; modified_base join(1,4,5,6,10,11,12,13,14,15,16) OTHER; 2'-O-methyl modification; modified_base join(2,3,17,18,19) OTHER; thiophosphorylated skeleton modification and 2'-O-methyl modification; modified_base join(7,8,9) OTHER; 2'-fluoro modification; modified_base join(1,5,7,9,11,13,15) OTHER; modified_base join(3,17,18,19) OTHER; modified_base 2 OTHER; thiophosphorylated skeleton modification and 2'-fluoro modification; modified_base join(4,6,8,10,12,14,16) OTHER) [Compound G5-34] | 0.33 | – | – | –
5 | G5-12: G5 bound to 5' end of SEQ ID NO: 1 via C6 amino modification, paired with 5'-Cy5 SEQ ID NO: 2; structure Z5 (sense GUAUGUUGCCCGUUUGUCC; antisense GGACAAACGGGCAACAUACCU; G5 ligand via C6 amino; Cy5 label; modified_base join(1,5,8,12,16) OTHER; deoxyribonucleotide modification; modified_base 3 OTHER; thiophosphorylated skeleton modification and deoxyribonucleotide modification; modified_base join(4,6,7,9,10,11,13,14,15,17) OTHER; 2'-fluoro modification; modified_base join(2,18,19) OTHER; thiophosphorylated skeleton modification and 2'-fluoro modification; modified_base join(1,5,7,9,11,13,15,17) OTHER; 2'-O-methyl modification; modified_base join(3,19,20,21) OTHER; thiophosphorylated skeleton modification and 2'-O-methyl modification; modified_base join(2,4) …) [Compound G5-12] | – | 199232 | 3.69 | reach a higher level
